Experiments:
[1] = system: mitochondrial respiration; test: Inhibition of mitochondrial respiration (rate of reduction of cytochrome c in isolated mitochondria), yeast; assay type: biochemical, Saccharomyces cerevisiae; details: DMSO control
Text: In order to determine the effect of the compounds according to the invention on mitochondrial respiration it is first necessary to isolate the mitochondria from the organisms being investigated. For this, in the case of the yeast Saccharomyces cerevisiae, the cells in a 30 to 40% strength suspension of the yeast in an aqueous solution of 0.6M mannitol+0.01M tris[hydroxymethyl]-aminomethane+0.002M disodium ethylenediaminetetraacetate (pH 6.8) are disrupted in a glass bead mill, and the extract is fractionated by differential centrifugation at 1000× g and 12000× g. The mitochondria are in the pellet from the 12000× g centrifugation.
(§1) Used as control is a mixture with the equivalent amount of pure DMSO. The inhibition at the concentration of agent in each case is then calculated as follows [formula] where ΔE is the change in extinction, at is the change in time, [formula] is the reaction rate for the control and [formula] is the reaction rate for the sample x.
(§2) The inhibition was determined in each case at a test substance concentration of 1.8/10^-5mol/l .

[2] = system: mitochondrial respiration; test: Inhibition of mitochondrial respiration (rate of reduction of cytochrome c in isolated mitochondria), house fly; assay type: biochemical, Musca domestica; details: DMSO control
Text: (§3) It is also possible similarly to isolate mitochondria from other organisms, e.g. from the phytopathogenic fungus Drechslera sorokiniana (synonym: Helminthosporium sativum), from the dermatophyte Trichophyton mentagrophytes, which is a human pathogen, and, for example, from the house fly (Musca domestica) as insect or from the spider mite Tetranychus urticae.
as §1, §2

[3] = system: wheat mildew (Erysiphe graminis var. tritici); test: Activity against wheat mildew on wheat seedlings; assay type: in vivo; details: aqueous dispersion containing 250 ppm active ingredient, assessed after 7 days
Method: Leaves of pot-grown wheat seedlings of the Fruhgold variety were sprayed with an aqueous liquor which contained 80% of active ingredient and 20% of emulsifier in dry matter and, 24 hours after the sprayed-on layer had dried, were dusted with spores of wheat mildew (Erysiphe graminis var. tritici). The test plants were then placed in a greenhouse at from 20° to 22° C. and from 75 to 80% relative humidity. The extent of mildew spread was assessed after 7 days.

Plasmopara viticola = test: Activity against Plasmopara viticola on potted vines; assay type: in vivo; details: aqueous dispersion containing 250 ppm active ingredient, infected 8 days after spraying
Method: Leaves of potted vines of the Muller Thurgau variety were sprayed with an aqueous liquor which contained 80% of active ingredient and 20% of emulsifier in dry matter. To assess the duration of action of the active ingredient, after the sprayed-on layer had dried the plants were placed in a greenhouse for 8 days. The leaves were then infected with a suspension of Plasmopara viticola zoospores. The vines were then placed first in a chamber saturated with water vapor at 24° C. for 48 hours and then in a greenhouse at from 20° to 30° C. for 5 days. After this, to speed up sporangiophore discharge, the plants were again placed in the humidity chamber for 16 hours. The extent of fungus attack was then assessed on the undersides of the leaves.

[4] = system: mitochondrial respiration; test: Inhibition of mitochondrial respiration (rate of reduction of cytochrome c in isolated mitochondria), phytopathogenic fungus; assay type: biochemical, Drechslera sorokiniana; details: DMSO control
Text: as §3, §1, §2

SMILES	% inhibition of respiration at 1.8 × 10^-5 mol/l test substance, Saccharomyces cerevisiae [1] [%]	% inhibition of respiration at 1.8 × 10^-5 mol/l test substance, Musca domestica [2] [%]	fungal attack, wheat mildew [3] [%]	fungal attack, Plasmopara viticola (Plasmopara viticola) [%]	% inhibition of respiration at 1.8 × 10^-5 mol/l test substance, Drechslera sorokiniana [4] [%]
COC(=O)/C=C(/OC)c1ccccc1COc1ccccc1C [Compound 1a.2]	88	21	15		
COC(=O)/C=C(/OC)c1ccccc1COc1ccc(Oc2ccccc2)cc1 [Compound 1a.31]				10	
CON=C(C)c1cc(C)c(OCc2ccccc2/C(=C\C(=O)OC)OC)cc1C [Compound 1a.61]	98	97	15	10	
CON=Cc1cccc(OCc2ccccc2/C(=C\C(=O)OC)OC)c1 [Compound 1a.62]	87	74		10	
C=CCON=Cc1cccc(OCc2ccccc2/C(=C\C(=O)OC)OC)c1 [Compound 1a.63]	93	85	15	10	
COC(=O)/C=C(/OC)c1ccccc1COc1cccc(C=NOCc2ccccc2Cl)c1 [Compound 1a.64]	94	93			98
CC/C(=C/C(=O)OC)c1ccccc1COc1ccccc1C [Compound 1a.110]		12		10	
COC(=O)/C=C(/OC)c1ccccc1COc1nc(-c2ccccc2)sc1C [Compound 1a.182]	98			10	
COC(=O)/C=C(/OC)c1ccccc1/C=C\c1ccccc1[N+](=O)[O-] [Compound 1a.239]	44	16	15		
COC(=O)/C=C(/OC)c1ccccc1/C=C/c1ccccc1C(F)(F)F [Compound 1a.243]	99	89			94
COC(=O)/C=C(/OC)c1ccccc1/C=C/c1cccc(C(F)(F)F)c1 [Compound 1a.245]	98	91	15		
COC(=O)/C=C(/OC)c1ccccc1/C=C\c1cccc(C(F)(F)F)c1 [Compound 1a.246]	84	81	15		
COC(=O)/C=C(/OC)c1ccccc1/C=C/c1ccc(-c2ccccc2)cc1 [Compound 1a.268, methyl 2-[2-(4-phenylphenyl)-(E)-ethenyl]-(E)-β-methoxycinnamate]	95	95			97
COC(=O)/C=C(/OC)c1ccccc1/C=C/c1ccco1 [Compound 1a.290]	98	86	15		
COC(=O)/C=C(/OC)c1ccccc1/C=C\c1ccoc1 [Compound 1a.293]	65	27			
COC(=O)/C=C(/OC)c1ccccc1/C=C/c1cccs1 [Compound 1a.294]	98	95	15		

SMILES	% inhibition of respiration at 1.8 × 10^-5 mol/l test substance, Saccharomyces cerevisiae [1] [%]	% inhibition of respiration at 1.8 × 10^-5 mol/l test substance, Musca domestica [2] [%]	fungal attack, wheat mildew [3] [%]	fungal attack, Plasmopara viticola (Plasmopara viticola) [%]	% inhibition of respiration at 1.8 × 10^-5 mol/l test substance, Drechslera sorokiniana [4] [%]
COC(=O)/C=C(/OC)c1ccccc1/C=C\c1cccs1 [Compound 1a.295]	94	76			
COC(=O)/C=C(/OC)c1ccccc1/C=C\c1ccsc1 [Compound 1a.297]	70	22			
COC(=O)/C=C(/OC)c1ccccc1/C=C/c1cc(-c2ccc(Cl)cc2)no1 [Compound 1a.300]	98	93			
COC(=O)/C=C(/OC)c1ccccc1/C=C\c1coc(-c2ccc(Cl)cc2)n1 [Compound 1a.303]	98	86			
COC(=O)/C=C(/OC)c1ccccc1/C=C/c1ccn(-c2ccc(Cl)cc2)c1 [Compound 1a.304]	97	96	15		
COC(=O)/C=C(/OC)c1ccccc1/C=C\c1ccn(-c2ccc(Cl)cc2)c1 [Compound 1a.305]	30	39			
COC(=O)/C=C(/OC)c1ccccc1/C=C/c1csc(-c2ccccc2)n1 [Compound 1a.306]	98	96			
COC(=O)/C=C(/OC)c1ccccc1/C=C\c1csc(-c2ccccc2)n1 [Compound 1a.307]	58	71			
COC(=O)/C=C(/OC)c1ccccc1/C=C/c1nc(-c2ccc(F)cc2)no1 [Compound 1a.310]	99			10	
COC(=O)/C=C(/OC)c1ccccc1/C=C/c1csc(-c2ccc(C)cc2)n1 [Compound 1a.312]	99			10	
COC(=O)/C=C(/OC)c1ccccc1/C=C/c1cnn(-c2ccc(OC)cc2)c1 [Compound 1a.318]	98			10	
COC(=O)/C=C(/OC)c1ccccc1/C=C\c1cnn(-c2ccc(Cl)cc2)c1 [Compound 1a.321]	19			10	
COC(=O)/C=C(/OC)c1ccccc1/C=C\c1noc(-c2ccc(Cl)cc2)c1C [Compound 1a.323]	99			10	
COC(=O)/C=C(/OC)c1ccccc1/C=C/c1csc(-c2ccc(F)cc2)n1 [Compound 1a.394, methyl 2-{2-[2-(4-fluorophenyl)-4-thiazolyl]-(E)-ethenyl}-(E)-β-methoxycinnamate]	96	99		10	
COC(=O)/C=C(/OC)c1ccccc1/C=C/c1ccc(C(F)(F)F)cc1 [Compound 1a.519]	97	89			

Reference: US5573999A, “β-substituted cinnamic acid derivative” (BASF Aktiengesellschaft, priority 1991, dated 1996)
